Patent US20160237045A1, “SUBSTITUTED PHENYLALANINE DERIVATIVES” (BAYER PHARMA AKTIENGESELLSCHAFT, priority 2013, published 2016)
Where a name gives a salt, the structure may show the parent alone. Blank lines part the entries; values can stand above or below the compound they belong to.

Experiments:
[1] = test system: plasma; assay: Determination of anticoagulatory activity: activated partial thromboplastin time (aPTT) in plasma; conditions: in vitro in human and animal plasma (species of Table B not stated); C.K. Prest kit; 37° C., 3 minutes incubation
Protocol: a.4) Determination of Anticoagulatory Activity
The anticoagulatory activity of the test substances is determined in vitro in human and animal plasma (for example mouse, rat, rabbit, pig and dog plasma). To this end, blood is drawn off in a mixing ratio of sodium citrate/blood of 1:9 using a 0.11 molar sodium citrate solution as receiver. Immediately after the blood has been drawn off, it is mixed thoroughly and centrifuged at about 4000 g for 15 minutes. The supernatant is pipetted off.
The activated partial thromboplastin time (aPTT) is determined in the presence of varying concentrations of test substance or the corresponding solvent using a commercial test kit (C.K. Prest from Diagnostica Stago). The test compounds are incubated with the plasma and the PTT reagent (cephalin, kaolin) at 37° C. for 3 minutes. Coagulation is then started by addition of a 25 mM aqueous calcium chloride solution, and the time when coagulation occurs is determined. The concentration of test substance which brings about a 1.5-fold extension of the aPTT is determined.

[2] = molecular target: T1, human factor XIa (Homo sapiens, UniProt P03951); assay: Measurement of FXIa inhibition (fluorogenic peptide substrate Boc-Glu(OBzl)-Ala-Arg-AMC); assay type: biochemical; conditions: factor XIa from Kordia 0.45 nM; 15 min preincubation; 30 min at 22° C.; fluorescence of AMC
T1 construct: purchased Kordia
Protocol: a.1) Measurement of FXIa Inhibition
The factor XIa inhibition of the substances according to the invention is determined using a biochemical test system which utilizes the reaction of a peptidic factor XIa substrate to determine the enzymatic activity of human factor XIa. Here, factor XIa cleaves from the peptic factor XIa substrate the C-terminal aminomethylcoumarin (AMC), the fluorescence of which is measured. The determinations are carried out in microtitre plates.
Test substances are dissolved in dimethyl sulphoxide and serially diluted in dimethyl sulphoxide (3000 μM to 0.0078 μM; resulting final concentrations in the test: 50 μM to 0.00013 μM). In each case 1 μl of the diluted substance solutions is placed into the wells of white microtitre plates from Greiner (384 wells). Subsequently, the following are added successively: 20 μl of assay buffer (50 mmol/l Tris buffer pH 7.4; 100 mmol/l sodium chloride; 5 mmol/l calcium chloride; 0.1% bovine serum albumin) and 20 μl of factor XIa from Kordia (0.45 nM in assay buffer). After 15 min of incubation, the enzyme reaction is started by addition of 20 μl of the factor XIa substrate Boc-Glu(OBzl)-Ala-Arg-AMC dissolved in assay buffer (10 μM in assay buffer) from Bachem, the mixture is incubated at room temperature (22° C.) for 30 min and fluorescence is then measured (excitation: 360 nm, emission: 460 nm). The measured emissions of the test batches with test substance are compared to those of control batches without test substance (only dimethyl sulphoxide instead of test substance in dimethyl sulphoxide), and IC50 values are calculated from the concentration/activity relationships.

T1 sequence (P03951 388-625 limits assumed): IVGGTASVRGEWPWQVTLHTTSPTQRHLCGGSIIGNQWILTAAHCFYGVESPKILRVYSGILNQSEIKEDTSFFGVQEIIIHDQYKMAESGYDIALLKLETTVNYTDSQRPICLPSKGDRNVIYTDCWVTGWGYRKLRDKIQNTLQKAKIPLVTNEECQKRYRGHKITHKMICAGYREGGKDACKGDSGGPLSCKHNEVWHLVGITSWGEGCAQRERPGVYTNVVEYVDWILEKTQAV
T1 sequence (P03951 19-387 partner limits assumed): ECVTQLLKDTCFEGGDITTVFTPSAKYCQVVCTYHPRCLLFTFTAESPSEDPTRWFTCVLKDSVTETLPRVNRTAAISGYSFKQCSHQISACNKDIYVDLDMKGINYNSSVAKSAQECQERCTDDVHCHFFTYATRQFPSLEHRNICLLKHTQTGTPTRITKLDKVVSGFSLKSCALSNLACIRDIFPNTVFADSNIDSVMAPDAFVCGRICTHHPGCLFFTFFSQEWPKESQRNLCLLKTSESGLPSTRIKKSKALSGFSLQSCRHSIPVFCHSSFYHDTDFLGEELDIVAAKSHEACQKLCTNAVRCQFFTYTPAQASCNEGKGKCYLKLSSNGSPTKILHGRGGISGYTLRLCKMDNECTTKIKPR

SMILES: NC[C@H]1CC[C@H](C(=O)N[C@@H](Cc2ccc(-c3ccccc3C(=O)N3CCNCC3)cc2)C(=O)Nc2ccc(-c3nn[nH]n3)cc2)CC1 [Example 5, trans-4-(Aminomethyl)-N-[(2S)-1-oxo-3-[2′-(piperazin-1-ylcarbonyl)biphenyl-4-yl]-1-{[4-(2H-tetrazol-5-yl)phenyl]amino}propan-2-yl]cyclohexanecarboxamide hydrochloride]
aPTT (concentration of test substance which brings about a 1.5-fold extension of the aPTT) [1]: 0.32 µmol/L
IC50 [2]: 11 nM

SMILES: NCC(=O)NCC(=O)NCC(=O)Nc1ccccc1-c1ccc(C[C@H](NC(=O)[C@H]2CC[C@H](CN)CC2)C(=O)Nc2ccc(-c3nn[nH]n3)cc2)cc1 [Example 9, Glycylglycyl-N-{4′-[(2S)-2-({[trans-4-(aminomethyl)cyclohexyl]carbonyl}amino)-3-oxo-3-{[4-(2H-tetrazol-5-yl)phenyl]amino}propyl]biphenyl-2-yl}glycinamide hydrochloride]
aPTT (concentration of test substance which brings about a 1.5-fold extension of the aPTT) [1]: 0.12 µmol/L
IC50 [2]: 5.3 nM

SMILES: NC[C@H]1CC[C@H](C(=O)N[C@@H](Cc2ccc(-c3ccccc3CN3CCNCC3)cc2)C(=O)Nc2ccc(-c3nnn[nH]3)cc2)CC1 [Example 16, trans-4-(Aminomethyl)-N-[(2S)-1-oxo-3-[2′-(piperazin-1-ylmethyl)biphenyl-4-yl]-1-{[4-(1H-tetrazol-5-yl)phenyl]amino}propan-2-yl]cyclohexanecarboxamide hydrochloride]
aPTT (concentration of test substance which brings about a 1.5-fold extension of the aPTT) [1]: 0.08 µmol/L
IC50 [2]: 6.2 nM

SMILES: NC[C@H]1CC[C@H](C(=O)N[C@@H](Cc2ccc(-c3ccccc3C(N)=O)cc2)C(=O)Nc2ccc(-c3nc(C(F)(F)C(F)(F)C(=O)O)n[nH]3)cc2)CC1 [Example 15, 3-[5-(4-{[(2S)-2-({[trans-4-(Aminomethyl)cyclohexyl]carbonyl}amino)-3-(2′-carbamoylbiphenyl-4-yl)propanoyl]amino}phenyl)-1H-1,2,4-triazol-3-yl]-2,2,3,3-tetrafluoropropanoic acid hydrochloride]
aPTT (concentration of test substance which brings about a 1.5-fold extension of the aPTT) [1]: 0.23 µmol/L
IC50 [2]: 12 nM

SMILES: CN(C)CC(=O)Nc1ccccc1-c1ccc(C[C@H](NC(=O)[C@H]2CC[C@H](CN)CC2)C(=O)Nc2ccc(-c3nn[nH]n3)cc2)cc1 [Example 10, trans-4-(Aminomethyl)-N-[(2S)-3-(2′-{[(dimethylamino)acetyl]amino}biphenyl-4-yl)-1-oxo-1-{[4-(2H-tetrazol-5-yl)phenyl]amino}propan-2-yl]cyclohexanecarboxamide hydrochloride]
aPTT (concentration of test substance which brings about a 1.5-fold extension of the aPTT) [1]: 0.23 µmol/L
IC50 [2]: 7.2 nM

SMILES: NC[C@H]1CC[C@H](C(=O)N[C@@H](Cc2ccc(-c3ccccc3C(=O)NC3CCNCC3)cc2)C(=O)Nc2ccc(-c3nn[nH]n3)cc2)CC1 [Example 6, 4′-[(2S)-2-({[trans-4-(Aminomethyl)cyclohexyl]carbonyl}amino)-3-oxo-3-{[4-(2H-tetrazol-5-yl)phenyl]amino}propyl]-N-(piperidin-4-yl)biphenyl-2-carboxamide hydrochloride]
aPTT (concentration of test substance which brings about a 1.5-fold extension of the aPTT) [1]: 0.57 µmol/L
IC50 [2]: 39 nM

SMILES: NC[C@H]1CC[C@H](C(=O)N[C@@H](Cc2ccc(-c3ccccc3CO)cc2)C(=O)Nc2ccc(-c3nn[nH]n3)cc2)CC1 [Example 14, trans-4-(Aminomethyl)-N-[(2S)-3-[2′-(hydroxymethyl)biphenyl-4-yl]-1-oxo-1-{[4-(2H-tetrazol-5-yl)phenyl]amino}propan-2-yl]cyclohexanecarboxamide hydrochloride]
aPTT (concentration of test substance which brings about a 1.5-fold extension of the aPTT) [1]: 0.31 µmol/L
IC50 [2]: 4.2 nM

SMILES: CNC(=O)c1ccccc1-c1ccc(C[C@H](NC(=O)[C@H]2CC[C@H](CN)CC2)C(=O)Nc2ccc(-c3nn[nH]n3)cc2)cc1 [Example 7, 4′-[(2S)-2-({[trans-4-(Aminomethyl)cyclohexyl]carbonyl}amino)-3-oxo-3-{[4-(2H-tetrazol-5-yl)phenyl]amino}propyl]-N-methylbiphenyl-2-carboxamide hydrochloride]
aPTT (concentration of test substance which brings about a 1.5-fold extension of the aPTT) [1]: 0.61 µmol/L
IC50 [2]: 12 nM

SMILES: NC[C@H]1CC[C@H](C(=O)N[C@@H](Cc2ccc(-c3ccccc3NC(=O)C3CCNCC3)cc2)C(=O)Nc2ccc(-c3nnn[nH]3)cc2)CC1 [Example 12, N-{4′-[(2S)-2-({[trans-4-(Aminomethyl)cyclohexyl]carbonyl}amino)-3-oxo-3-{[4-(1H-tetrazol-5-yl)phenyl]amino}propyl]biphenyl-2-yl}piperidine-4-carboxamide hydrochloride]
aPTT (concentration of test substance which brings about a 1.5-fold extension of the aPTT) [1]: 0.29 µmol/L
IC50 [2]: 8.9 nM

SMILES: NC[C@H]1CC[C@H](C(=O)N[C@@H](Cc2ccc(-c3ccccc3N)cc2)C(=O)Nc2ccc(-c3nn[nH]n3)cc2)CC1 [Example 8, trans-N-[(2S)-3-(2′-Aminobiphenyl-4-yl)-1-oxo-1-{[4-(2H-tetrazol-5-yl)phenyl]amino}propan-2-yl]-4-(aminomethyl)cyclohexanecarboxamide hydrochloride]
aPTT (concentration of test substance which brings about a 1.5-fold extension of the aPTT) [1]: 0.24 µmol/L
IC50 [2]: 5.5 nM

Stronger by IC50 [2], values ahead:

IC50 [2]: 3 nM
SMILES: NC[C@H]1CC[C@H](C(=O)N[C@@H](Cc2ccc(-c3ccccc3NC(=O)C3CCOCC3)cc2)C(=O)Nc2ccc(-c3nn[nH]n3)cc2)CC1 [Example 11, N-{4′-[(2S)-2-({[trans-4-(Aminomethyl)cyclohexyl]carbonyl}amino)-3-oxo-3-{[4-(2H-tetrazol-5-yl)phenyl]amino}propyl]biphenyl-2-yl}tetrahydro-2H-pyran-4-carboxamide hydrochloride]
aPTT (concentration of test substance which brings about a 1.5-fold extension of the aPTT) [1]: 0.16 µmol/L

IC50 [2]: 1.3 nM
SMILES: NC[C@H]1CC[C@H](C(=O)N[C@@H](Cc2ccc(-c3ccccc3C(=O)N3CCCCC3)cc2)C(=O)Nc2ccc(-c3nn[nH]n3)cc2)CC1 [Example 4, trans-4-(Aminomethyl)-N-[(2S)-1-oxo-3-[2′-(piperidin-1-ylcarbonyl)biphenyl-4-yl]-1-{[4-(2H-tetrazol-5-yl)phenyl]amino}propan-2-yl]cyclohexanecarboxamide hydrochloride]
aPTT (concentration of test substance which brings about a 1.5-fold extension of the aPTT) [1]: 0.07 µmol/L

IC50 [2]: 0.7 nM
SMILES: CCN(CC)C(=O)c1ccccc1-c1ccc(C[C@H](NC(=O)[C@H]2CC[C@H](CN)CC2)C(=O)Nc2ccc(-c3nn[nH]n3)cc2)cc1 [Example 3, 4′-[(2S)-2-({[trans-4-(Aminomethyl)cyclohexyl]carbonyl}amino)-3-oxo-3-{[4-(2H-tetrazol-5-yl)phenyl]amino}propyl]-N,N-diethylbiphenyl-2-carboxamide hydrochloride]
aPTT (concentration of test substance which brings about a 1.5-fold extension of the aPTT) [1]: 0.12 µmol/L

IC50 [2]: 4 nM
SMILES: CC(=O)Nc1ccccc1-c1ccc(C[C@H](NC(=O)[C@H]2CC[C@H](CN)CC2)C(=O)Nc2ccc(-c3nn[nH]n3)cc2)cc1 [Example 13, trans-N-[(2S)-3-(2′-Acetamidobiphenyl-4-yl)-1-oxo-1-{[4-(2H-tetrazol-5-yl)phenyl]amino}propan-2-yl]-4-(aminomethyl)cyclohexanecarboxamide hydrochloride]
aPTT (concentration of test substance which brings about a 1.5-fold extension of the aPTT) [1]: 0.18 µmol/L

IC50 [2]: 1.9 nM
SMILES: NC[C@H]1CC[C@H](C(=O)N[C@@H](Cc2ccc(-c3ccccc3S(=O)(=O)N3CCOCC3)cc2)C(=O)Nc2ccc(-c3nn[nH]n3)cc2)CC1 [Example 1, trans-4-(Aminomethyl)-N-[(2S)-3-[2′-(morpholin-4-ylsulphonyl)biphenyl-4-yl]-1-oxo-1-{[4-(2H-tetrazol-5-yl)phenyl]amino}propan-2-yl]cyclohexanecarboxamide hydrochloride]
aPTT (concentration of test substance which brings about a 1.5-fold extension of the aPTT) [1]: 0.17 µmol/L

IC50 [2]: 2.8 nM
SMILES: NC[C@H]1CC[C@H](C(=O)N[C@@H](Cc2ccc(-c3ccccc3C(=O)N3CCOCC3)cc2)C(=O)Nc2ccc(-c3nn[nH]n3)cc2)CC1 [Example 2, trans-4-(Aminomethyl)-N-[(2S)-3-[2′-(morpholin-4-ylcarbonyl)biphenyl-4-yl]-1-oxo-1-{[4-(2H-tetrazol-5-yl)phenyl]amino}propan-2-yl]cyclohexanecarboxamide hydrochloride]
aPTT (concentration of test substance which brings about a 1.5-fold extension of the aPTT) [1]: 0.03 µmol/L
